The results in this text go back to patent US20110172193A1, “PRO-DRUGS OF (E)-7-(3-(2-AMINO-1-FLUOROETHYLIDENE)PIPERIDIN-1-YL)-1-CYCLOPROPYL-6-FLUORO-8-METHOXY-4-OXO-1,4-DIHYDROQUINOLINE-3-CARBOXYLIC ACID” (priority 2010, published 2011).

Data set [1] relates to Staphylococcus aureus (OC8525), a methicillin-resistant strain (MRSA). In words: In vivo efficacy in a mouse systemic infection model. Particulars: for ED50: Staphylococcus aureus, 72 h, Swiss Webster mice infected i.p. with MRSA, 3 day survival, normalized to parent content; for % Survival: i.v., single dose level, mice. As for the experimental part:
Female Swiss Webster mice weighing between 20-25 g were infected intraperitoneally with approximately 5×10^5 colony forming units (CFU) Staphylococcus aureus (OC8525), a methicillin-resistant strain (MRSA), in 7% mucin. One hour later, the animals were given the test compound intravenously or orally in a dose volume of 0.2 mL. Each animal test group consisted of eight animals. The test compounds were prepared immediately before dosing in 5% dextrose in water (D5W) and diluted further in D5W for i.v. and p.o. administration. The mice were observed over a three day period and ED50 values were calculated from the resulting % survival curves (see Table 13, below). The measured ED50 values were normalized to the content of (E)-7-(3-(2-amino-1-fluoroethylidene)piperidin-1-yl)-1-cyclopropyl-6-fluoro-8-methoxy-4-oxo-1,4-dihydroquinoline-3-carboxylic acid. For some compounds, in vivo efficacy was determined by testing a group of eight mice at a single dose level only. In these cases, the data presented in Table 13, below are reported as percent survival at the designated dose.

A short description of data set [2]: Clarity of test compound solutions at […] (aqueous solubility). The settings on record: for solubility at 24 h: pH 4, aqueous buffer; for Aqueous Solubility pH~7 (visual clarity): […] active-form equivalents, pH 7 (50 mM phosphate), after 24 hours. The method, then:
A 50-mg/mL solution of a compound of formula (I) or a compound of formula (II) in H2O was titrated with 0.1 M NaOH until pH reached 5.7-6.1. Any solid that precipitated was filtered. The remaining solutions or phase-separated oil/H2O mixtures were freeze-dried to produce zwitterions as fluffy solids.
The aqueous solubility of Compounds #14, #15 and #16 were determined by a modified procedure. In these cases, the samples were targeted at a pH of 4 and 7 and were measured exclusively using 100 mM phosphate buffers. For both pH's, measured samples were initially prepared at ˜3 mg/ml and ˜10 mg/ml concentrations and for samples that dissolved rapidly, additional compound was added to the solution until saturated solutions were obtained.

The mark [3] stands for this setting: oral dose 1 h later, read-out: ED50 p.o.
Where [4] appears, read: iv, i.v. dose 1 h later, read-out: ED50 i.v.
The mark [5] stands for this setting: 50 mM citrate buffer, thermodynamic from solid.

Each structure is given as a SMILES string. Like-named read-outs stand apart in the source and are kept apart here. Bounds are passed on as bounds.

Usually ED50 stands for the midpoint of the dose-response relation. The solubility is the concentration that dissolves in the medium under given conditions. Read a high solubility as much dissolved substance. On to `COc1c(N2CCC/C(=C(\F)CNC(=O)[C@H](C)NC(=O)[C@H](C)N)C2)c(F)cc2c(=O)c(C(=O)O)cn(C3CC3)c12.Cl` [Compound 2, 7-(3-{2-[(2S)-2-((2S)-2-Amino-propionylamino)-propionylamino]-1-fluoro-ethylidene}-piperidin-1-yl)-1-cyclopropyl-6-fluoro-8-methoxy-4-oxo-1,4-dihydro-quinoline-3-carboxylic acid hydrochloride], for which the ED50 in data set [1] (setting [3]) is over 14.9 mg/kg; in data set [1] (setting [4]), 2.6 mg/kg. This molecule also displayed a solubility at 24 h in data set [2] (setting [5]) of under 3300 µg/mL. In data set [2], the “Aqueous Solubility pH~7 (visual clarity)” value is “No”.
The corresponding values for `COc1c(N2CCC/C(=C(\F)CNC(=O)[C@@H](N)Cc3ccccc3)C2)c(F)cc2c(=O)c(C(=O)O)cn(C3CC3)c12.Cl` [Compound 3, 7-{3-[2-((2S)-2-Amino-3-phenyl-propionylamino)-1-fluoro-ethylidene]-piperidin-1-yl}-1-cyclopropyl-6-fluoro-8-methoxy-4-oxo-1,4-dihydro-quinoline-3-carboxylic acid hydrochloride] are over 14.8 mg/kg, 1.4 mg/kg, under 3300 µg/mL and “No”.
The corresponding values for `COc1c(N2CCC/C(=C(\F)CNC(=O)[C@@H](N)CC(=O)O)C2)c(F)cc2c(=O)c(C(=O)O)cn(C3CC3)c12.Cl` [Compound 5, 7-{3-[2-((2S)-2-Amino-3-carboxy-propionylamino)-1-fluoro-ethylidene]-piperidin-1-yl}-1-cyclopropyl-6-fluoro-8-methoxy-4-oxo-1,4-dihydro-quinoline-3-carboxylic acid hydrochloride] are over 15.7 mg/kg, over 3.9 mg/kg, under 3300 µg/mL and “No”.
As to `CN[C@@H](C)C(=O)NC/C(F)=C1/CCCN(c2c(F)cc3c(=O)c(C(=O)O)cn(C4CC4)c3c2OC)C1.Cl` [Compound 7, 1-Cyclopropyl-6-fluoro-7-{3-[1-fluoro-2-((2S)-2-methylamino-propionylamino)-ethylidene]-piperidin-1-yl}-8-methoxy-4-oxo-1,4-dihydro-quinoline-3-carboxylic acid hydrochloride], the “% Survival” value in data set [1] (at 2.1 mg/kg/day) is reported as 0% at 2.1 mg/kg/day. Moreover, the solubility at 24 h in data set [2] (setting [5]) is over 3300 µg/mL. The “Aqueous Solubility pH~7 (visual clarity)” value in data set [2] is on record as “Yes”.
`COc1c(N2CCC/C(=C(\F)CNC(=O)OCc3oc(=O)oc3C)C2)c(F)cc2c(=O)c(C(=O)O)cn(C3CC3)c12` [Compound 8, 1-Cyclopropyl-6-fluoro-7-{3-[1-fluoro-2-(5-methyl-2-oxo-[1,3]dioxol-4-ylmethoxycarbonylamino)-ethylidene]-piperidin-1-yl}-8-methoxy-4-oxo-1,4-dihydro-quinoline-3-carboxylic acid] had a solubility at 24 h in data set [2] (setting [5]) of under 3300 µg/mL. The “Aqueous Solubility pH~7 (visual clarity)” value in data set [2] was “No”.
On to `COc1c(N2CCC/C(=C(\F)CNC(=O)[C@@H](N)CCCCN)C2)c(F)cc2c(=O)c(C(=O)O)cn(C3CC3)c12.Cl.Cl` [Compound 9, 1-Cyclopropyl-7-{3-[2-((2S)-2,6-diamino-hexanoylamino)-1-fluoro-ethylidene]-piperidin-1-yl}-6-fluoro-8-methoxy-4-oxo-1,4-dihydro-quinoline-3-carboxylic acid dihydrochloride], for which the “% Survival” value in data set [1] (at 1.9 mg/kg/day) was 25% at 1.9 mg/kg/day. The molecule further showed a solubility at 24 h in data set [2] (setting [5]) of over 3300 µg/mL. In addition, in data set [2], the “Aqueous Solubility pH~7 (visual clarity)” value was “Yes”.
As for `COc1c(N2CCC/C(=C(\F)CNC(=O)[C@H](CC(C)C)NC(=O)[C@H](C)N)C2)c(F)cc2c(=O)c(C(=O)O)cn(C3CC3)c12.Cl` [Compound 10, 7-(3-{2-[(2S)-2-((2S)-2-Amino-propionylamino)-4-methyl-pentanoylamino]-1-fluoro-ethylidene}-piperidin-1-yl)-1-cyclopropyl-6-fluoro-8-methoxy-4-oxo-1,4-dihydro-quinoline-3-carboxylic acid hydrochloride], the “% Survival” value in data set [1] (at 2.4 mg/kg/day) is reported as 25% at 2.4 mg/kg/day. Besides, in data set [2] (setting [5]), the solubility at 24 h was under 3300 µg/mL. Moreover, in data set [2], the “Aqueous Solubility pH~7 (visual clarity)” value was “No”.
With `CCOC(=O)c1cn(C2CC2)c2c(OC)c(N3CCC/C(=C(\F)CN)C3)c(F)cc2c1=O.Cl` [Compound 11, 7-[3-(2-Amino-1-fluoro-ethylidene)-piperidin-1-yl]-1-cyclopropyl-6-fluoro-8-methoxy-4-oxo-1,4-dihydro-quinoline-3-carboxylic acid ethyl ester hydrochloride], the 50% effective dose (ED50) in data set [1] (setting [3]) worked out at 6.7 mg/kg; in data set [1] (setting [4]), 1.2 mg/kg. For the same molecule, the solubility at 24 h in data set [2] (setting [5]) is under 3300 µg/mL. Further, the “Aqueous Solubility pH~7 (visual clarity)” value in data set [2] was “No”.
On to `CCOP(=O)(NCC(F)=C1CCCN(c2c(F)cc3c(=O)c(C(=O)[O-])cn(C4CC4)c3c2OC)C1)OCC.[Na+]` [Compound 13, 1-Cyclopropyl-7-{3-[2-(diethoxy-phosphorylamino)-1-fluoro-ethylidene]-piperidin-1-yl}-6-fluoro-8-methoxy-4-oxo-1,4-dihydro-quinoline-3-carboxylic acid sodium salt], for which, in data set [1] (at 3.8 mg/kg/day), the “% Survival” value was 12.5% at 3.8 mg/kg/day. This molecule gave a solubility at 24 h in data set [2] (thermodynamic from solid) of under 3300 µg/mL. Also, in data set [2] (pH 7.8, aqueous buffer, thermodynamic from solid), the solubility was 1800 µg/mL.
